Values quoted from earlier work in patent US11234933B1, “Surface-modified emulsomes for intranasal delivery of drugs” (King Abdulaziz University, priority 2020, dated 2022).

Conditions: oral route, first pass

VIN hepatic metabolism: ~75%
Structure (SMILES): CCOC(=O)C1=C[C@]2(CC)CCCN3CCc4c(n1c1ccccc41)[C@@H]32 [VIN, Vinpocetine]
